Measurements: patent US20240050576A1, “METHODS AND COMPOUNDS FOR THE TREATMENT OF GENETIC DISEASE” (Design Therapeutics, Inc., priority 2020, published 2024)
Like-named read-outs stand apart in the source and are kept apart here.

Test system: human FXN
Experiment: FXN mRNA expression by qRT-PCR in GM15850 cells after 48 hr compound treatment
Format: cell-based
Settings: GM15850 cells, 48 hr incubation, hFXN normalized to hGAPDH, read-out: EC50 WT (nM, 48 hr)

## Cc1cc(-c2nc3cnc(C4CCN(CCOCCOCCOCCOCCOCCC(=O)NCCCN(C)CCCNC(=O)CCNC(=O)c5nc(NC(=O)CCNC(=O)c6cc(NC(=O)c7nc(NC(=O)CCNC(=O)c8cc(NC(=O)c9nccn9C)cn8C)cn7C)cn6C)cn5C)CC4)cc3n2[C@@H](C)c2ccccc2)nn(C)c1=O [Compound 9]
Homo sapiens
  EC50: 100 to 500 nM

## CC(=O)N1c2ccc(-c3ccc(C(=O)NCCOCCOCCOCCOCCOCCOCCOCCOCCNC(=O)c4nc(NC(=O)CCNC(=O)c5cc(NC(=O)c6nc(NC(=O)CCNC(=O)c7cc(NC(=O)c8nc(NC(=O)CCNC(=O)[C@H](CCCNC(=N)N)NC(=O)[C@@H](N)CCCNC(=N)N)cn8C)cn7C)cn6C)cn5C)cn4C)cc3)cc2[C@H](Nc2ccc(Cl)cc2)C[C@@H]1C [Compound 90]
  EC50: 100 to 500 nM

## Cc1sc2c(c1C)C(c1ccc(Cl)cc1)=N[C@@H](CC(=O)Nc1cccc(OCCOCCOCCOCCOCCOCCC(=O)NCCCN(C)CCCNC(=O)CCNC(=O)c3nc(NC(=O)CCNC(=O)c4cc(NC(=O)c5nc(NC(=O)CCNC(=O)c6cc(NC(=O)c7nccn7C)cn6C)cn5C)cn4C)cn3C)c1)c1nnc(C)n1-2 [Compound 62]
Homo sapiens
  EC50: < 100 nM

## Cc1sc2c(c1C)C(c1ccc(Cl)cc1)=N[C@@H](CC(=O)Nc1ccc(OCCOCCOCCOCCOCCOCCOCCOCCOCCNC(=O)CCNC(=O)c3nc(NC(=O)CCNC(=O)c4cc(NC(=O)c5nc(NC(=O)CCNC(=O)c6cc(NC(=O)c7nccn7C)cn6C)cn5C)cn4C)cn3C)nc1)c1nnc(C)n1-2 [Compound 102]
Homo sapiens
  EC50: < 100 nM
